Laboratory results as given in patent US12037340B2, “Pentacyclic derivatives as Zika virus inhibitors” (Gilead Sciences, Inc., priority 2021, dated 2024).

test system: ZIKV; experiment: microbe, parasite or virus in culture; type: cell-based, Zika virus; conditions: 48 hrs

Structure (SMILES)	EC50
COC(=O)N[C@H](C(=O)N1CC2(CC2)C[C@H]1c1nc(Cl)c(-c2ccc3c(c2)COc2cc4c(ccc5nc([C@@H]6CC7(CC7)CN6C(=O)[C@@H](NC(=O)OC)C(C)(C)C(F)(F)F)[nH]c54)cc2-3)[nH]1)C(C)(C)C(F)(F)F [Compound 4, methyl ((S)-1-((S)-6-(4-chloro-5-(2-((S)-5-((S)-4,4,4-trifluoro-2-((methoxycarbonyl)amino)-3,3-dimethylbutanoyl)-5-azaspiro[2.4]heptan-6-yl)-1,11-dihydroisochromeno[4′,3′:6,7]naphtho[1,2-d]imidazol-9-yl)-1H-imidazol-2-yl)-5-azaspiro[2.4]heptan-5-yl)-4,4,4-trilluoro-3,3-dimethyl-1-oxobutan-2-yl)carbamate]	0.0087 µM

same assay, conditions: Zika virus, Huh-7; 48 hrs

Structure (SMILES)	EC50
COC(=O)N[C@H](C(=O)N1[C@@H](C)CC[C@H]1c1nc(Cl)c(-c2ccc3c(c2)COc2cc4c(ccc5nc([C@@H]6CC[C@H](C)N6C(=O)[C@@H](NC(=O)OC)C6C[C@@H](C)O[C@H](C)C6)[nH]c54)cc2-3)[nH]1)C1CC(C)O[C@H](C)C1 (stereo in doubt) [Compound 9, methyl ((S)-2-((2S,5S)-2-(9-(4-chloro-2-((2S,5S)-1-((S)-2-((2R,6R)-2,6-dimethyltetrahydro-2H-pyran-4-yl)-2-((methoxycarbonyl)amino)acetyl)-5-methylpyrrolidin-2-yl)-1H-imidazol-5-yl)-1,11-dihydroisochromeno[4′,3′:6,7]naphtho[1,2-d]imidazol-2-yl)-5-methylpyrrolidin-1-yl)-1-((2R,6R)-2,6-dimethyltetrahydro-2H-pyran-4-yl)-2-oxoethyl)carbamate]	0.0481 µM
COC(=O)N[C@H](C(=O)N1[C@@H](C)CC[C@H]1c1nc(Br)c(-c2ccc3c(c2)COc2cc4c(ccc5nc([C@@H]6CC[C@H](C)N6C(=O)[C@@H](NC(=O)OC)C6C[C@@H](C)O[C@H](C)C6)[nH]c54)cc2-3)[nH]1)C1CC(C)O[C@H](C)C1 (stereo in doubt) [Compound 10, methyl ((S)-2-((2S,5S)-2-(9-(4-bromo-2-((2S,5S)-1-((S)-2-((2R,6R)-2,6-dimethyltetrahydro-2H-pyran-4-yl)-2-((methoxycarbonyl)amino)acetyl)-5-methylpyrrolidin-2-yl)-1H-imidazol-5-yl)-1,11-dihydroisochromeno[4′,3′:6,7]naphtho[1,2-d]imidazol-2-yl)-5-methylpyrrolidin-1-yl)-1-((2R,6R)-2,6-dimethyltetrahydro-2H-pyran-4-yl)-2-oxoethyl)carbamate]	0.0188 µM
COC(=O)N[C@H](C(=O)N1CC2(CC2)C[C@H]1c1nc(Cl)c(-c2ccc3c(c2)COc2cc4c(ccc5nc([C@@H]6CC7(CC7)CN6C(=O)[C@@H](NC(=O)OC)C(C)C)[nH]c54)cc2-3)[nH]1)C(C)C [Compound 2, methyl ((S)-1-((S)-6-(4-chloro-5-(2-((S)-5-((methoxycarbonyl)-L-valyl)-5-azaspiro[2.4]heptan-6-yl)-1,11-dihydroisochromeno[4′,3′:6,7]naphtho[1,2-d]imidazol-9-yl)-1H-imidazol-2-yl)-5-azaspiro[2.4]heptan-5-yl)-3-methyl-1-oxobutan-2-yl)carbamate]	0.0505 µM
COC[C@H]1C[C@@H](c2nc(Cl)c(-c3ccc4c(c3)COc3cc5c(ccc6nc([C@@H]7CC[C@H](C)N7C(=O)[C@@H](NC(=O)OC)C(C)C)[nH]c65)cc3-4)[nH]2)N(C(=O)[C@@H](NC(=O)OC)[C@@H](C)OC)C1 [Compound 5, methyl ((S)-1-((2S,5S)-2-(9-(4-chloro-2-((2S,4S)-1-(N-(methoxycarbonyl)-O-methyl-L-threonyl)-4-(methoxymethyl)pyrrolidin-2-yl)-1H-imidazol-5-yl)-1,11-dihydroisochromeno[4′,3′:6,7]naphtho[1,2-d]imidazol-2-yl)-5-methylpyrrolidin-1-yl)-3-methyl-1-oxobutan-2-yl)carbamate]	0.124 µM
COC[C@H]1C[C@@H](c2nc(Cl)c(-c3ccc4c(c3)COc3cc5c(ccc6nc([C@@H]7CC[C@H](C)N7C(=O)[C@@H](NC(=O)OC)C(C)C)[nH]c65)cc3-4)[nH]2)N(C(=O)[C@@H](NC(=O)OC)C2CCOCC2)C1 [Compound 6, methyl ((S)-1-((2S,5S)-2-(9-(4-chloro-2-((2S,4S)-1-((S)-2-((methoxycarbonyl)amino)-2-(tetrahydro-2H-pyran-4-yl)acetyl)-4-(methoxymethyl)pyrrolidin-2-yl)-1H-imidazol-5-yl)-1,11-dihydroisochromeno[4′,3′:6,7]naphtho[1,2-d]imidazol-2-yl)-5-methylpyrrolidin-1-yl)-3-methyl-1-oxobutan-2-yl)carbamate]	0.133 µM
COC[C@H]1C[C@@H](c2nc(Cl)c(-c3ccc4c(c3)COc3cc5c(ccc6nc([C@@H]7CC[C@H](C)N7C(=O)[C@@H](NC(=O)OC)C(C)C)[nH]c65)cc3-4)[nH]2)N(C(=O)[C@@H](NC(=O)OC)C(C)C)C1 [Compound 7, methyl ((S)-1-((2S,5S)-2-(9-(4-chloro-2-((2S,4S)-1-((methoxycarbonyl)-L-valyl)-4-(methoxymethyl)pyrrolidin-2-yl)-1H-imidazol-5-yl)-1,11-dihydroisochromeno[4′,3′:6,7]naphtho[1,2-d]imidazol-2-yl)-5-methylpyrrolidin-1-yl)-3-methyl-1-oxobutan-2-yl)carbamate]	0.039 µM
COC[C@H]1C[C@@H](c2nc(Br)c(-c3ccc4c(c3)COc3cc5c(ccc6nc([C@@H]7CC[C@H](C)N7C(=O)[C@@H](NC(=O)OC)C(C)C)[nH]c65)cc3-4)[nH]2)N(C(=O)[C@@H](NC(=O)OC)C(C)C)C1 [Compound 8, methyl ((S)-1-((2S,5S)-2-(9-(4-bromo-2-((2S,4S)-1-((methoxycarbonyl)-L-valyl)-4-(methoxymethyl)pyrrolidin-2-yl)-1H-imidazol-5-yl)-1,11-dihydroisochromeno[4′,3′:6,7]naphtho[1,2-d]imidazol-2-yl)-5-methylpyrrolidin-1-yl)-3-methyl-1-oxobutan-2-yl)carbamate]	0.0241 µM
COC(=O)N[C@H](C(=O)N1[C@@H](C)CC[C@H]1c1nc(C2CC2)c(-c2ccc3c(c2)COc2cc4c(ccc5nc([C@@H]6CC[C@H](C)N6C(=O)[C@@H](NC(=O)OC)C6C[C@@H](C)O[C@H](C)C6)[nH]c54)cc2-3)[nH]1)C1C[C@@H](C)O[C@H](C)C1 (stereo partly drawn) [Compound 11, methyl ((S)-2-((2S,5S)-2-(9-(4-cyclopropyl-2-((2S,5S)-1-((S)-2-((2R,6R)-2,6-dimethyltetrahydro-2H-pyran-4-yl)-2-((methoxycarbonyl)amino)acetyl)-5-methylpyrrolidin-2-yl)-1H-imidazol-5-yl)-1,11-dihydroisochromeno[4′,3′:6,7]naphtho[1,2-d]imidazol-2-yl)-5-methylpyrrolidin-1-yl)-1-((2R,6R)-2,6-dimethyltetrahydro-2H-pyran-4-yl)-2-oxoethyl)carbamate]	0.0219 µM
CC[C@H]1CC[C@@H](c2nc3ccc4cc5c(cc4c3[nH]2)OCc2cc(-c3[nH]c([C@@H]4CC[C@H](C)N4C(=O)[C@@H](NC(=O)OC)C(C)C)nc3Cl)ccc2-5)N1C(=O)[C@@H](NC(=O)OC)C1CCOCC1 [Compound 12, methyl ((S)-2-((2S,5S)-2-(9-(4-chloro-2-((2S,5S)-1-((methoxycarbonyl)-L-valyl)-5-methylpyrrolidin-2-yl)-1H-imidazol-5-yl)-1,11-dihydroisochromeno[4′,3′:6,7]naphtho[1,2-d]imidazol-2-yl)-5-ethylpyrrolidin-1-yl)-2-oxo-1-(tetrahydro-2H-pyran-4-yl)ethyl)carbamate]	0.0121 µM
COC[C@H]1C[C@@H](c2nc(C#N)c(-c3ccc4c(c3)COc3cc5c(ccc6nc([C@@H]7CC[C@H](C)N7C(=O)[C@@H](NC(=O)OC)C(C)C)[nH]c65)cc3-4)[nH]2)N(C(=O)[C@@H](NC(=O)OC)C(C)C)C1 [Compound 13, methyl ((S)-1-((2S,5S)-2-(9-(4-cyano-2-((2S,4S)-1-((methoxycarbonyl)-L-valyl)-4-(methoxymethyl)pyrrolidin-2-yl)-1H-imidazol-5-yl)-1,11-dihydroisochromeno[4′,3′:6,7]naphtho[1,2-d]imidazol-2-yl)-5-methylpyrrolidin-1-yl)-3-methyl-1-oxobutan-2-yl)carbamate]	0.0516 µM
CC[C@H](C)[C@H](NC(=O)OC)C(=O)N1C[C@@H](COC)C[C@H]1c1nc(Cl)c(-c2ccc3c(c2)COc2cc4c(ccc5nc([C@@H]6CC[C@H](C)N6C(=O)[C@@H](NC(=O)OC)C(C)C)[nH]c54)cc2-3)[nH]1 [Compound 14, methyl ((S)-1-((2S,5S)-2-(9-(4-chloro-2-((2S,4S)-1-((methoxycarbonyl)-L-isoleucyl)-4-(methoxymethyl)pyrrolidin-2-yl)-1H-imidazol-5-yl)-1,11-dihydroisochromeno[4′,3′:6,7]naphtho[1,2-d]imidazol-2-yl)-5-methylpyrrolidin-1-yl)-3-methyl-1-oxobutan-2-yl)carbamate]	0.0097 µM
CC[C@H](C)[C@H](NC(=O)OC)C(=O)N1[C@@H](C)CC[C@H]1c1nc(Cl)c(-c2ccc3c(c2)COc2cc4c(ccc5nc([C@@H]6CC[C@H](C)N6C(=O)[C@@H](NC(=O)OC)C6CCOCC6)[nH]c54)cc2-3)[nH]1 [Compound 15, methyl ((S)-2-((2S,5S)-2-(9-(4-chloro-2-((2S,5S)-1-((methoxycarbonyl)-L-isoleucyl)-5-methylpyrrolidin-2-yl)-1H-imidazol-5-yl)-1,11-dihydroisochromeno[4′,3′:6,7]naphtho[1,2-d]imidazol-2-yl)-5-methylpyrrolidin-1-yl)-2-oxo-1-(tetrahydro-2H-pyran-4-yl)ethyl)carbamate]	0.0077 µM
CC[C@H](C)[C@H](NC(=O)OC)C(=O)N1C[C@@H](COC)C[C@H]1c1nc(C#N)c(-c2ccc3c(c2)COc2cc4c(ccc5nc([C@@H]6CC[C@H](C)N6C(=O)[C@@H](NC(=O)OC)C(C)C)[nH]c54)cc2-3)[nH]1 [Compound 16, methyl ((S)-1-((2S,5S)-2-(9-(4-cyano-2-((2S,4S)-1-((methoxycarbonyl)-L-isoleucyl)-4-(methoxymethyl)pyrrolidin-2-yl)-1H-imidazol-5-yl)-1,11-dihydroisochromeno[4′,3′:6,7]naphtho[1,2-d]imidazol-2-yl)-5-methylpyrrolidin-1-yl)-3-methyl-1-oxobutan-2-yl)carbamate]	0.0434 µM
